Laboratory results taken from the NIST ThermoML archive (doi:10.1016/j.fluid.2007.04.030).

Experiment: xn = mol fraction of the nth substance listed
Conditions: 101 kPa, Liquid

COc1cc2c(cc1O)CC1c3c(cc(O)c(OC)c3-2)CCN1C (stereo unspecified) [boldine] + CC(C)O
mass density [kg/m3]
Conditions	x1 = 0.00187	x1 = 0.00371	x1 = 0.00563	x1 = 0.00735	x1 = 0.00957	x1 = 0.01158	x1 = 0.01364
283.15 K	796.84	800.29	803.77	807.03	810.42	814.44	818.2
288.15 K	792.75	796.21	799.68	802.94	806.37	810.34	814.09
293.15 K	788.61	792.06	795.53	798.79	802.25	806.19	809.91
298.15 K	784.39	787.84	791.32	794.57	798.05	801.97	805.66
303.15 K	780.11	783.56	787.04	790.29	793.78	797.69	801.36
308.15 K	775.77	779.22	782.69	785.94	789.45	793.35	797.01
313.15 K	771.34	774.79	778.25	781.51	785.03	788.91	792.59
318.15 K	766.8	770.26	773.72	776.98	780.51	784.38	788.09
323.15 K	762.17	765.62	769.08	772.35	775.88	779.76	783.56
328.15 K	757.42	760.87	764.34	767.61	771.14	775.02	778.85
333.15 K	752.55	756.01	759.48	762.75	766.27	770.17	773.99

COc1cc2c(cc1O)CC1c3c(cc(O)c(OC)c3-2)CCN1C (stereo unspecified) [boldine] + CCCCCCCCO
mass density [kg/m3]
Conditions	x1 = 0.00398	x1 = 0.00806	x1 = 0.01216
283.15 K	835.34	838.57	842.06
288.15 K	831.91	835.14	838.62
293.15 K	828.46	831.68	835.16
298.15 K	825	828.21	831.68
303.15 K	821.52	824.72	828.18
308.15 K	818.01	821.21	824.66
313.15 K	814.49	817.68	821.12
318.15 K	810.93	814.12	817.55
323.15 K	807.34	810.52	813.96
328.15 K	803.73	806.9	810.33
333.15 K	800.08	803.24	806.66

COc1cc2c(cc1O)CC1c3c(cc(O)c(OC)c3-2)CCN1C (stereo unspecified) [boldine] + CCCCCCO
mass density [kg/m3]
Conditions	x1 = 0.00308	x1 = 0.00633	x1 = 0.00958
283.15 K	831.02	834.31	837.66
288.15 K	827.44	830.73	834.07
293.15 K	823.83	827.12	830.46
298.15 K	820.21	823.49	826.82
303.15 K	816.56	819.84	823.16
308.15 K	812.88	816.16	819.48
313.15 K	809.17	812.44	815.76
318.15 K	805.43	808.7	812.01
323.15 K	801.65	804.91	808.22
328.15 K	797.83	801.09	804.39
333.15 K	793.97	797.22	800.51

COc1cc2c(cc1O)CC1c3c(cc(O)c(OC)c3-2)CCN1C (stereo unspecified) [boldine] + CCCCCO
mass density [kg/m3]
Conditions	x1 = 0.00272	x1 = 0.00547	x1 = 0.00826
283.15 K	825.74	829.04	832.39
288.15 K	822.11	825.4	828.75
293.15 K	818.44	821.73	825.07
298.15 K	814.76	818.04	821.37
303.15 K	811.05	814.33	817.65
308.15 K	807.31	810.58	813.91
313.15 K	803.53	806.8	810.12
318.15 K	799.72	802.99	806.31
323.15 K	795.87	799.13	802.45
328.15 K	791.97	795.23	798.54
333.15 K	788.02	791.28	794.59
